Laboratory results from patent publication US20180303807A1, “ANDROGEN RECEPTOR LIGANDS” (DUKE UNIVERSITY, priority 2015, published 2018).

Experiments:
AR = target: T1, AR (Homo sapiens, UniProt P10275); assay: Reporter gene assay, AR transcriptional (MMTV-Luc) in CV1 cells; format: cell-based; settings: pcDNA-AR + MMTV-Luc, 0.1 nM R1881 plus test compound, 24 hrs; for IC50: read-out: B1 = AR transcriptional IC50 (μM) in CV1 cells
T1 construct: expressed in transfected cells; host or cells: CV1 cells
T1 sequence (P10275 1-920): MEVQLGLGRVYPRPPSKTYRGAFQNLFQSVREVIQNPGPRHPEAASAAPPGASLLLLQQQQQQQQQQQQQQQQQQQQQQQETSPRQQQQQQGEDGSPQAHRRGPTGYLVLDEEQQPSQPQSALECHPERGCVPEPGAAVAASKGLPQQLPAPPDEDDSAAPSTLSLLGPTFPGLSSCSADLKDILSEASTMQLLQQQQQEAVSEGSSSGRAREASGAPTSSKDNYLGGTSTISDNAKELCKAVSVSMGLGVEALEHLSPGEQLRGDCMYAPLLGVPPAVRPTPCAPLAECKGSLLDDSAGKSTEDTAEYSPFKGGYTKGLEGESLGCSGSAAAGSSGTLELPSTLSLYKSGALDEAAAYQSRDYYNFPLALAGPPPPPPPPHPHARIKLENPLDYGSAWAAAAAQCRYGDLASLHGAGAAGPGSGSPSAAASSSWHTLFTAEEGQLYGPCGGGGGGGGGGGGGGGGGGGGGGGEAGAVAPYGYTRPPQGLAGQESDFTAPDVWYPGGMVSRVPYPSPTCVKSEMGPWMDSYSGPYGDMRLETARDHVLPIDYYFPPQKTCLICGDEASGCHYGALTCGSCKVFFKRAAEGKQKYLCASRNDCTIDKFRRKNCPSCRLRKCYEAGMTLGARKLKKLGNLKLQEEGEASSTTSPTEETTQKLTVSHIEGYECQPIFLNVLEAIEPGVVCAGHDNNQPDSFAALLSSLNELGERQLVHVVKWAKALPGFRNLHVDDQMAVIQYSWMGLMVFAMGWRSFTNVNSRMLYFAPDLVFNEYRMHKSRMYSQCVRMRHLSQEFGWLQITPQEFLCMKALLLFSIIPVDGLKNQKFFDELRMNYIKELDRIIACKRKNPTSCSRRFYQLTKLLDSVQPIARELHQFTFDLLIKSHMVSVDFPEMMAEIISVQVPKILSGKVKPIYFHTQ
Procedure: (§1) Reporter Gene Assay (IC50 determination, Table 2, B1-B3). CV1 cells were seeded into 96-well cell culture plates and transfected with Lipofectin. For AR transcriptional assays, the DNA mixture consisted of pcDNA-AR, MMTV-Luc (androgen responsive reporter gene), and Renilla-Luc (for assessing transfection efficiency and toxicity). Following overnight incubation, cells were induced with hormone (0.1 nM R1881 (synthetic AR agonist) plus increasing concentrations of test compound) for 24 hrs. Cells were lysed and luciferase activity was quantified using Dual Luciferase Reagent (DLR). IC50 determination was assessed using GraphPad Prism software.

CV1 cells = assay: Toxicity of test compound in the CV1 reporter gene assay (Renilla-Luc); format: cell-based
Procedure: as §1

IC50 (AR)	B1 = AR transcriptional IC50 (μM) in CV1 cells (AR)	Compound	B2 = % Toxicity of test compound (20 μM) (CV1 cells)	B3 = % Toxicity of test compound (60 μM) (CV1 cells)
2 µM	–	Cc1ccc(C2C3=C(CC(C)(C)CC3=O)Nc3ccc4nccnc4c32)s1 (racemic) [Compound A104, (±)-9,9-dimethyl-12-(5-methylthiophen-2-yl)-8,9,10,12-tetrahydropyrazino[2,3-a]acridin-11(7H)-one]	–	–
3.3 µM	–	CC1(C)CC(=O)C2=C(C1)Nc1ccc3ncccc3c1C2c1ccc(Cl)c([N+](=O)[O-])c1 (stereo not shown) [Compound A5]	24%	68%
12 µM	–	CC1(C)CC(=O)C2=C(C1)Nc1ccc3ccccc3c1C2c1cccnc1 (stereo not shown) [Compound A13]	0%	78%
> 10 µM	–	CC1(C)CC(=O)C2=C(C1)Nc1ccc3ccccc3c1C2c1c[nH]c2ccccc12 (stereo not shown) [Compound A14]	0%	0%
> 10 µM	–	O=C1CCCC2=C1C(c1ccc3c(c1)OCO3)c1c(ccc3ccccc13)N2 (stereo not shown) [Compound A15]	0%	0%
> 10 µM	–	CC1(C)CC(=O)C2=C(C1)Nc1ccc3ccccc3c1C2c1cc([N+](=O)[O-])c(O)cc1Cl (stereo not shown) [Compound A16]	0%	0%
> 10 µM	–	O=C1CCCC2=C1C(c1ccco1)c1c(ccc3ccccc13)N2 (stereo not shown) [Compound A17]	0%	36%
> 10 µM	–	CC1(C)CC(=O)C2=C(C1)Nc1ccc3ccccc3c1C2c1ccc(-c2nnc(N)s2)cc1 (stereo not shown) [Compound A19]	0%	87%
> 10 µM	–	O=C1CCCC2=C1C(c1ccc(O)cc1)c1c(ccc3ccccc13)N2 (stereo not shown) [Compound A20]	0%	0%
> 10 µM	–	O=C1CCCC2=C1C(c1cccc([N+](=O)[O-])c1)c1c(ccc3ccccc13)N2 (stereo not shown) [Compound A21]	0%	28%
> 10 µM	–	Cc1n[nH]c2c1C(c1ccc([N+](=O)[O-])cc1)C1=C(N2)C(C)(C)CCC1=O (stereo not shown) [Compound A23]	0%	0%
> 10 µM	–	CC1(C)CC(=O)C2=C(C1)Nc1ccc3ncccc3c1C2c1ccc(O)cc1 (stereo not shown) [Compound A24]	0%	35%
> 10 µM	–	O=[N+]([O-])c1ccc(C2C3=C(CCCC3)Nc3ccc4ccccc4c32)cc1 (stereo not shown) [Compound A25]	23%	42%
0.43 µM	–	CC1CC(=O)C2=C(C1)Nc1ccc3ncccc3c1C2c1ccc([N+](=O)[O-])cc1 (stereo not shown) [Compound A26]	–	–
1.8 µM	–	CC1(C)CC(=O)C2=C(C1)Nc1ccc3ncccc3c1C2c1ccc2nonc2c1 (stereo not shown) [Compound A30]	–	–
2.2 µM	–	CC1(C)CC(=O)C2=C(C1)Nc1ccc3ncccc3c1C2c1ccc(Cl)c(Cl)c1 (stereo not shown) [Compound A31]	–	–
0.4 µM	–	CC1(C)CC(=O)C2=C(C1)Nc1ccc3ncccc3c1C2c1ccc(F)c(F)c1 (stereo not shown) [Compound A32]	–	–
3.4 µM	–	CC1(C)CC(=O)C2=C(C1)Nc1ccc3ncccc3c1C2c1ccc(Br)cn1 (stereo not shown) [Compound A33]	–	–
1.9 µM	–	CC1(C)CC(=O)C2=C(C1)Nc1ccc3ncccc3c1C2c1ccc(Br)nc1 (stereo not shown) [Compound A34]	–	–
58 µM	–	Cc1ccc(C2C3=C(CC(C)(C)CC3=O)Nc3ccc4ncccc4c32)nc1 (stereo not shown) [Compound A35]	–	–

IC50 (AR)	B1 = AR transcriptional IC50 (μM) in CV1 cells (AR)	Compound	B2 = % Toxicity of test compound (20 μM) (CV1 cells)	B3 = % Toxicity of test compound (60 μM) (CV1 cells)
–	Inactive	CC1(C)CC(=O)C2=C(C1)Nc1ccc3ncccc3c1C2c1ccc(S(C)(=O)=O)cc1 (stereo not shown) [Compound A36]	–	–
38 µM	–	CC1(C)CC(=O)C2=C(C1)Nc1ccc3ncccc3c1C2c1ccc(C(=O)O)cc1 (stereo not shown) [Compound A37]	–	–
3.3 µM	–	CC1(C)CC(=O)C2=C(C1)Nc1ccc3ncccc3c1C2c1ccc([N+](=O)[O-])c(O)c1 (stereo not shown) [Compound A38]	–	–
52 µM	–	CC1(C)CC(=O)C2=C(C1)Nc1ccc3ncccc3c1C2c1ccc(B(O)O)c(F)c1 (stereo not shown) [Compound A39]	–	–
1.7 µM	–	CC1(C)CC(=O)C2=C(C1)Nc1ccc3ncccc3c1C2c1ccc(F)cc1 (stereo not shown) [Compound A40]	–	–
1.9 µM	–	CC1(C)CC(=O)C2=C(C1)Nc1ccc3ncccc3c1C2c1ccc(C(F)(F)F)cc1 (stereo not shown) [Compound A41]	–	–
9.1 µM	–	CC1(C)CC(=O)C2=C(C1)Nc1ccc3cnccc3c1C2c1ccc([N+](=O)[O-])cc1 (stereo not shown) [Compound A43]	–	–
–	Inactive	CC1(C)CC(=O)C2=C(C1)Nc1c(ccc3ncccc13)C2c1ccc([N+](=O)[O-])cc1 (stereo not shown) [Compound A44]	–	–
0.3 µM	–	CC(C)C1CC(=O)C2=C(C1)Nc1ccc3ncccc3c1C2c1ccc([N+](=O)[O-])cc1 (stereo not shown) [Compound A45]	–	–
9.9 µM	–	O=C1CCC2=C1C(c1ccc([N+](=O)[O-])cc1)c1c(ccc3ncccc13)N2 (stereo not shown) [Compound A47]	–	–
1.2 µM	–	CC1(C)CC(=O)C2=C(C1)Nc1ccc3ncccc3c1C2c1ccc(C#N)cn1 (stereo not shown) [Compound A56]	–	–
> 10 µM	–	CC1(C)CC(=O)C2=C(C1)Nc1ccc3ncccc3c1C2c1cncnc1 (stereo not shown) [Compound A58]	–	–
> 10 µM	–	CC1(C)CC(=O)C2=C(C1)Nc1ccc3ncccc3c1C2c1cnccn1 (stereo not shown) [Compound A65]	–	–
4.1 µM	–	CC1(C)CC(=O)C2=C(C1)Nc1ccc3ncccc3c1C2c1cccs1 (stereo not shown) [Compound A66, 9,9-dimethyl-12-(thiophen-2-yl)-8,9,10,12-tetrahydrobenzo[b][4,7]phenanthrolin-11(7H)-one]	–	–
> 10 µM	–	CC1(C)CC(=O)C2=C(C1)Nc1ccc3cn[nH]c3c1C2c1ccc(F)c(F)c1 (stereo not shown) [Compound A77]	–	–
> 10 µM	–	Cc1ccc(C2C3=C(CC(C)(C)CC3=O)Nc3cc(N4CCCC4)ccc32)s1 (stereo not shown) [Compound A105]	–	–
0.8 µM	–	Cc1ccc(C2C3=C(CC(C)(C)CC3=O)Nc3ccc4ccccc4c32)s1 (stereo not shown) [Compound A106, 9,9-dimethyl-12-(5-methylthiophen-2-yl)-8,9,10,12-tetrahydrobenzo[a]acridin-11(7H)-one]	–	–
1.2 µM	–	CC1(C)CC(=O)C2=C(C1)Nc1ccc3cn[nH]c3c1C2c1ccc(Cl)s1 (stereo not shown) [Compound A108]	–	–
3.2 µM	–	CC1(C)CC(=O)C2=C(C1)Nc1ccc3cn[nH]c3c1C2c1ccc(Br)s1 (stereo not shown) [Compound A112]	–	–
> 10 µM	–	Cc1ccsc1C1C2=C(CC(C)(C)CC2=O)Nc2ccc3nccnc3c21 (stereo not shown) [Compound A115]	–	–
